The values below come from patent US20190343817A1, “METHOD OF TREATING PAIN” (VERTEX PHARMACEUTICALS INCORPORATED, priority 2018, published 2019).

Series [1] deals with subjects with pain following bunionectomy. Nature of the series: Efficacy of Compound 1 in subjects with pain following bunionectomy (randomized, double-blind, placebo-controlled, 3-arm study). Format: in vivo, human. The protocol:
A randomized, double-blind, placebo-controlled, 3-arm, parallel-design study to evaluate the effect of Compound 1 on acute surgical pain was conducted. Bunionectomy is a well-established, multi-dose, surgical, acute pain model. A randomized, double-blind study design was selected to avoid observer bias and reduce symptoms or outcomes arising from the subjects' knowledge of treatment. A parallel design was considered most appropriate given the acute nature of bunionectomy surgery.
Male and female patients between the ages of 18 and 65 years (inclusive) with pain that is ≥4 on an 11-point Numeric Pain Rating Scale (NPRS) and is moderate or severe on the Verbal Categorical Rating Scale (VRS) after bunionectomy.
Investigational Drug: Compound 1. The investigational drug was administered orally in 250 mg capsules, prepared as described in Example 2. The investigational drug was administered every 12 hours (q12 h). The first dose was 1500 mg, and the remaining doses were 750 mg.
The reference drug was administered orally in 5 mg/325 mg capsules, supplied as over-encapsulated 5 mg/325 mg tablets. The reference drug was administered in a dose of 5 mg/325 mg every 6 hours (q6 h).
After a screening period, subjects received a primary unilateral first metatarsal bunionectomy repair on Day −1. A continuous popliteal sciatic block infusion (0.2% ropivacaine) was started after surgery, and remained in place until approximately 3 AM on Day 1. After removal of the popliteal sciatic block, each subject was randomized when the subject requested the first dose of study drug for pain relief and reported pain ≥4 on the NPRS and moderate or severe pain on the VRS.
A total of 243 subjects were randomized approximately 1:1:1 to the Investigational Arm (80 subjects), Reference Arm (81 subjects), and Placebo Arm (82 subjects). To maintain the blind, all subjects received the same number of capsules in a double-dummy design.
In the Investigational Arm, Compound 1 was administered every 12 hours (q12 h) in a first dose of 1500 mg, followed by three 750 mg doses. The final dose of Compound 1 was given 36 hours after the first dose.
Compound 1 placebo capsules were administered every 12 hours (q12 h).
NPRS scores are frequently used in bunionectomy studies and are recognized by the FDA as a valid pain intensity measure. On the 11-point NPRS, a score of 0 denoted no pain, and a score of 10 denoted the worst pain intensity imaginable. Subjects reported their pain on the 11-point NPRS immediately before their first dose of the study drug (baseline NPRS score) and 0.5, 1, 1.5, 2, 3, 4, 5, 6, 8, 12, 16, 20, 24, 28, 32, 36, 40, 44, and 48 hours (±5 minutes) after the first dose of study drug. Pain intensity also was recorded on the NPRS immediately before each administration of rescue medication. Pain intensity scores that were collected within 4 hours after a dose of rescue medication were taken as missing, and the missing values were imputed as the intensity recorded immediately before the administration of rescue medication.
The primary efficacy analysis was based on an analysis of covariance (ANCOVA) model. The Least Squares (LS) mean of the time-weighted sum of the NPRS pain intensity difference, relative to baseline, from 0 to 24 hours after the first dose (“SPID24”) for each study arm is reported in Table 3. SPID24 is a standard measure of acute pain. Higher SPID24 scores represent improvements in pain relief. “Treatment difference” refers to the difference in SPID24 between the Investigational and Reference Arms, respectively, and the Placebo Arm.
The LS mean of the time-weighted sum of the NPRS pain intensity difference, relative to baseline, from 2 to 24 hours after the first dose (“SPID22”) for each study arm is reported in Table 4. The analysis was based on an analysis of covariance (ANCOVA) model. “Treatment difference” refers to the difference in SPID22 between the Investigational and Reference Arms, respectively, and the Placebo Arm.

For series [2], the system named is patients with chronic pain caused by small fiber neuropathy. Nature of the series: Efficacy of Compound 1 for pain caused by small fiber neuropathy (randomized, double-blind, placebo-controlled, 6-week study). Type of series: in vivo, human. The protocol: A randomized, double-blind, placebo-controlled, 6-week study that evaluated treatment with Compound 1 (Treatment Arm) or placebo (Placebo Arm) in patients with chronic pain caused by small fiber neuropathy was conducted.
Males and females between the ages of 18 and 80 years, inclusive, with small fiber neuropathy.
Compound 1 was administered orally in 250 mg capsules, prepared as described in Example 2.
The study included a 7-day run-in period, followed a 6-week treatment period. The subjects were randomized to a Placebo Arm (43 subjects) and a Treatment Arm (46 subjects) between the run-in period and the treatment period.
During the run-in period, subjects reported their average pain and sleep interference to establish a baseline NRS pain score and DSIS score.
During the treatment period, Compound 1 was administered to the subjects in the Treatment Arm every 24 hours (q24 h) in a dose of 1250 mg. Subjects in the Placebo Arm received placebo capsules.
Pain intensity was evaluated using an 11-point NRS. The 11-point scale ranged from 0 (no pain) to 10 (worst imaginable pain). From Day −7 through Week 6, subjects reported their average daily pain during the last 24 hours on the NRS via electronic diary.
Subjects reported pain interference with sleep using an 11-point scale ranging from 0 (none) to 10 (severe). The DSIS score was reported each morning in an electronic diary.
Subjects' impressions of their overall health status were reported on a 7-point scale from 1 (very much improved) to 7 (very much worse) at study visits.
NRS pain scores were averaged over weekly periods to reduce the impact on the analyses of individual high or low pain scores. The mean change from baseline in the weekly average of daily pain intensity on the 11-point NRS over the course of the treatment period for subjects in the Placebo and Treatment Arms is depicted graphically in FIG. 3. The mean change from baseline for those treated with Compound 1 compared to placebo was −1.09 (95% CI: −1.88 to −0.29) at Week 6.
The number and percentage of subjects with ≥30% and ≥50% reduction in the weekly average of daily pain intensity on the 11-point NRS at Week 6 is reported in Table 9. The total number of subjects for determining the percentage was based on subjects who had data at Week 6.
The total number of subjects for determining the percentage was based on subjects who had data at Week 6.

Series [3] has as its system subjects with pain following bunionectomy. In words: Safety evaluations in the bunionectomy study (adverse events).
Source text: Safety evaluations included adverse events, clinical laboratory assessments, clinical evaluation of vital signs, electrocardiograms, and physical examinations.
Where [4] appears, read: oral, Compound 1 1500 mg first dose then 750 mg q12 h, HB/APAP 5 mg/325 mg q6 h, ANCOVA.
Setting [5] is: relative to baseline, 24 hours after first dose, Investigational Arm 80 subjects, Reference Arm 81 subjects.
[6] abbreviates: Week 6, 1250 mg q24 h, n/Total of subjects with data at Week 6 given.

Take `Cc1cc(F)ccc1Oc1cc(C(F)(F)F)ccc1C(=O)Nc1ccn(COP(=O)(O)O)c(=O)c1` [Compound 1, (4-(2-(4-fluoro-2-methylphenoxy)-4-(trifluoromethyl)benzamido)-2-oxopyridin-1(2H)-yl)methyl dihydrogen phosphate]: the “Treatment difference in SPID24 versus Placebo Arm” value in series [1] (0 to 24 hours after first dose, same dosing as SPID24) turned out to be 29.50. Also, the “Treatment difference in SPID48 versus Placebo Arm” value in series [1] (0 to 48 hours after first dose) came to 62.79. Besides, in series [1] (2 to 24 hours after first dose), the “Treatment difference in SPID22 versus Placebo Arm” value is 28.53. The “Relief of acute pain compared to placebo (SPID24)” value in series [1] (Investigational Arm, 1500 mg then 750 mg q12 h) is given as “statistically significant relief of acute pain compared to placebo”. Moreover, the “Subjects who discontinued due to lack of efficacy” value in series [1] (bunionectomy study, of subjects assigned to the arm) came out at 7.5%. In addition, in series [1] (setting [4]), the “SPID22 (SE): LS mean of time-weighted sum of NPRS pain intensity difference, relative to baseline, 2 to 24 hours after first dose” value was 34.95 (4.93) and the “SPID48 (SE): LS mean of time-weighted sum of NPRS pain intensity difference, relative to baseline, 0 to 48 hours after first dose” value is recorded as 112.22 (10.57). Also, in series [1] (oral, Compound 1 1500 mg first dose then 750 mg q12 h, HB/APAP 5 mg/325 mg q6 h, ANCOVA, higher = better pain relief), the “SPID24 (SE): LS mean of time-weighted sum of NPRS pain intensity difference, relative to baseline, 0 to 24 hours after first dose” value is 36.14 (5.15). Besides, in series [1] (setting [5]), the “Subjects achieving ≥30% NPRS reduction at 24 hours” value was 46 (57.5) n (%), the “Subjects achieving ≥50% NPRS reduction at 24 hours” value is 41 (51.3) n (%) and the “Subjects achieving ≥70% NPRS reduction at 24 hours” value is listed as 22 (27.5) n (%). Further, the “Mean change from baseline NRS at week 6 (SE), weekly average of daily pain intensity on 11-point NRS” value in series [2] (1250 mg q24 h oral, 6 weeks, baseline 6.43, within-group) is −2.02 (0.27). In series [2] (setting [6]), the “Subjects categorized as improved on the PGIC assessment” value is listed as 39.5% (17/43), the “Subjects with ≥30% reduction in weekly average of daily pain intensity on 11-point NRS” value is 45.0% (18/40) and the “Subjects with ≥50% reduction in weekly average of daily pain intensity on 11-point NRS” value was 32.5% (13/40). The “Mean change from baseline in weekly average of daily pain intensity (NRS), Compound 1 compared to placebo” value in series [2] (Week 6, 1250 mg q24 h oral) is on record as −1.09 (95% CI: −1.88 to −0.29). For the same molecule, the “Mean change from baseline (SE) in weekly average of Daily Sleep Interference Scale (DSIS) score” value in series [2] (Week 6, 1250 mg q24 h oral, baseline 5.94) is on record as −1.78 (0.28). The “Treatment difference versus placebo in NRS pain intensity” value in series [2] (as early as Week 1, 1250 mg q24 h oral) is listed as “greater than 1 point”. For the same molecule, in series [3] (1500 mg then 750 mg q12 h, oral), the Tolerability result is recorded as “generally well tolerated”. For the same molecule, the Gastrointestinal adverse events in series [3] (percentage of arm) turned out to be 13%.
